US10085448B2, “Azoline compounds substituted by a carbocyclic condensed ring system” (BASF SE, priority 2014, dated 2018)
Like-named read-outs stand apart in the source and are kept apart here.

Experiments:
Assay type in all cases: in vivo
[1] = tested on: Diamond Back Moth (Plutella xylostella); experiment: Diamond back moth leaf-dip test; conditions: read-out: mortality in comparison with untreated controls
Description: B.1 Diamond Back Moth (Plutella xylostella)
The active compound was dissolved at the desired concentration in a mixture of 1:1 (vol:vol) distilled water: aceteone. Surfactant (Kinetic HV) was added at a rate of 0.01% (vol/vol).The test solution was prepared at the day of use.
Leaves of cabbage were dipped in test solution and air-dried. Treated leaves were placed in petri dishes lined with moist filter paper and inoculated with ten 3rd instar larvae. Mortality was recorded 72 hours after treatment. Feeding damages were also recorded using a scale of 0-100%.

[2] = tested on: Green Peach Aphid (Myzus persicae); experiment: Green peach aphid systemic artificial diet test; conditions: 72 h, read-out: mortality in comparison with untreated controls
Text: B.2 Green Peach Aphid (Myzus persicae)
For evaluating control of green peach aphid (Myzus persicae) through systemic means the test unit consisted of 96-well-microtiter plates containing liquid artificial diet under an artificial membrane.
The compounds were formulated using a solution containing 75% v/v water and 25% v/v DMSO. Different concentrations of formulated compounds were pipetted into the aphid diet, using a custom built pipetter, at two replications.
After application, 5-8 adult aphids were placed on the artificial membrane inside the microtiter plate wells. The aphids were then allowed to suck on the treated aphid diet and incubated at about 23±1° C. and about 50±5% relative humidity for 3 days. Aphid mortality and fecundity was then visually assessed.

[3] = tested on: Vetch Aphid (Megoura viciae); experiment: Vetch aphid leaf disk test; conditions: foliar, 120 h, read-out: mortality in comparison with untreated controls
Description: B.3 Vetch Aphid (Megoura viciae)
For evaluating control of vetch aphid (Megoura viciae) through contact or systemic means the test unit consisted of 24-well-microtiter plates containing broad bean leaf disks.
The compounds were formulated using a solution containing 75% v/v water and 25% v/v DMSO. Different concentrations of formulated compounds were sprayed onto the leaf disks at 2.5 μl, using a custom built micro atomizer, at two replications.
After application, the leaf disks were air-dried and 5-8 adult aphids placed on the leaf disks inside the microtiter plate wells. The aphids were then allowed to suck on the treated leaf disks and incubated at about 23±1° C. and about 50±5% relative humidity for 5 days. Aphid mortality and fecundity was then visually assessed.

[4] = tested on: Tobacco Budworm (Heliothis virescens); experiment: Tobacco budworm insect diet test; conditions: 120 h, read-out: mortality in comparison with untreated controls
Description: B.4 Tobacco Budworm (Heliothis virescens)
For evaluating control of tobacco budworm (Heliothis virescens) the test unit consisted of 96-well-microtiter plates containing an insect diet and 15-25 H. virescens eggs.
The compounds were formulated using a solution containing 75% v/v water and 25% v/v DMSO. Different concentrations of formulated compounds were sprayed onto the insect diet at 10 μl, using a custom built micro atomizer, at two replications.
(§1) After application, microtiter plates were incubated at about 28±1° C. and about 80±5% relative humidity for 5 days. Egg and larval mortality was then visually assessed.

[5] = tested on: Boll Weevil (Anthonomus grandis); experiment: Boll weevil insect diet test; conditions: 120 h, read-out: mortality in comparison with untreated controls
Description: B.5 Boll Weevil (Anthonomus grandis)
For evaluating control of boll weevil (Anthonomus grandis) the test unit consisted of 96-well-microtiter plates containing an insect diet and 5-10 A. grandis eggs.
(§2) The compounds were formulated using a solution containing 75% v/v water and 25% v/v DMSO. Different concentrations of formulated compounds were sprayed onto the insect diet at 5 μl, using a custom built micro atomizer, at two replications.
After application, microtiter plates were incubated at about 25±1° C. and about 75±5% relative humidity for 5 days. Egg and larval mortality was then visually assessed.

[6] = tested on: Mediterranean Fruitfly (Ceratitis capitata); experiment: Mediterranean fruitfly insect diet test; conditions: 120 h, read-out: mortality in comparison with untreated controls
Description: B.6 Mediterranean Fruitfly (Ceratitis capitata)
as §2, with “For evaluating control of Mediterranean fruitfly (Ceratitis capitata) the test unit consisted of microtiter plates containing an insect diet and 50-80 C. capitata eggs. The” for “The”
as §1

[7] = tested on: Orchid Thrips (Dichromothrips corbetti); experiment: Orchid thrips floral-immersion test; conditions: 72 h, read-out: mortality in comparison with untreated controls
Description: B.7 Orchid Thrips (Dichromothrips corbetti)
Dichromothrips corbetti adults used for bioassay were obtained from a colony maintained continuously under laboratory conditions. For testing purposes, the test compound is diluted in a 1:1 mixture of acetone:water (vol:vol), plus Kinetic HV at a rate of 0.01% v/v.
Thrips potency of each compound was evaluated by using a floral-immersion technique. All petals of individual, intact orchid flowers were dipped into treatment solution and allowed to dry in Petri dishes. Treated petals were placed into individual re-sealable plastic along with about 20 adult thrips. All test arenas were held under continuous light and a temperature of about 28° C. for duration of the assay. After 3 days, the numbers of live thrips were counted on each petal. The percent mortality was recorded 72 hours after treatment.

[8] = tested on: Rice Green Leafhopper (Nephotettix virescens); experiment: Rice green leafhopper sprayed rice seedling test; conditions: 72 h, read-out: mortality in comparison with untreated controls
Description: B.8 Rice Green Leafhopper (Nephotettix virescens)
Rice seedlings were cleaned and washed 24 hours before spraying. The active compounds were formulated in 1:1 acetone:water (vol:vol), and 0.01% vol/vol surfactant (Kinetic HV) was added. Potted rice seedlings were sprayed with 5-6 ml test solution, air dried, covered with Mylar cages and inoculated with 10 adults. Treated rice plants were kept at about 28-29° C. and relative humidity of about 50-60%. Percent mortality was recorded after 72 hours.

[9] = tested on: Red Spider Mite (Tetranychus kanzawai); experiment: Red spider mite sprayed cowpea bean test; conditions: 72 h, read-out: mortality in comparison with untreated controls
Description: B.9 Red Spider Mite (Tetranychus kanzawai)
The active compound was dissolved at the desired concentration in a mixture of 1:1 (vol:vol) distilled water: acetone. Add surfactant (Kinetic HV) was added at a rate of 0.01% (vol/vol).The test solution was prepared at the day of use.
Potted cowpea beans of 4-5 days of age were cleaned with tap water and sprayed with 1-2 ml of the test solution using air driven hand atomizer. The treated plants were allowed to air dry and afterwards inoculated with 30 or more mites by clipping a cassava leaf section from rearing population. Treated plants were placed inside a holding room at about 25-27° C. and about 50-60% relative humidity. Percent mortality was assessed 72 hours after treatment.

[10] = tested on: Southern Armyworm (Spodoptera eridania); experiment: Southern armyworm sprayed lima bean test; conditions: 96 h, read-out: mortality in comparison with untreated controls
Description: B.10 Southern Armyworm (Spodoptera eridania)
The active compounds were formulated in cyclohexanone as a 10,000 ppm solution supplied in tubes. The tubes were inserted into an automated electrostatic sprayer equipped with an atomizing nozzle and they served as stock solutions for which lower dilutions were made in 50% acetone:50% water (v/v). A nonionic surfactant (Kinetic®) was included in the solution at a volume of 0.01% (v/v).
Lima bean plants (variety Sieva) were grown 2 plants to a pot and selected for treatment at the 1st true leaf stage. Test solutions were sprayed onto the foliage by an automated electrostatic plant sprayer equipped with an atomizing spray nozzle. The plants were dried in the sprayer fume hood and then removed from the sprayer. Each pot was placed into perforated plastic bags with a zip closure. About 10 to 11 armyworm larvae were placed into the bag and the bags zipped closed. Test plants were maintained in a growth room at about 25° C. and about 20-40% relative humidity for 4 days, avoiding direct exposure to fluorescent light (24 hour photoperiod) to prevent trapping of heat inside the bags. Mortality and reduced feeding were assessed 4 days after treatment, compared to untreated control plants.

[11] = tested on: Green Soldier Stink Bug (Nezara viridula); experiment: Green soldier stink bug soybean pod spray test; conditions: 120 h, read-out: mortality in comparison with untreated controls
Description: B.11 Green Soldier Stink Bug (Nezara viridula)
(§3) The active compound was dissolved at the desired concentration in a mixture of 1:1 (vol:vol) distilled water: acetone. Surfactant (Kinetic HV) was added at a rate of 0.01% (vol/vol).The test solution was prepared at the day of use.
Soybean pods were placed in glass Petri dishes lined with moist filter paper and inoculated with ten late 3rd instar N. viridula. Using a hand atomizer, approximately 2 ml solution is sprayed into each Petri dish. Assay arenas were kept at about 25° C. Percent mortality was recorded after 5 days.

[12] = tested on: Neotropical Brown Stink Bug (Euschistus heros); experiment: Neotropical brown stink bug soybean pod spray test; conditions: 120 h, adults on soybean pods, sprayed, after 5 days, read-out: mortality in comparison with untreated controls
Description: B.12 Neotropical Brown Stink Bug (Euschistus heros)
as §3
Soybean pods were placed in microwavable plastic cups and inoculated with ten adult stage E. heros. Using a hand atomizer, approximately 1 ml solution is sprayed into each cup, insects and food present. A water source was provided (cotton wick with water). Each treatment was replicated 2-fold. Assay arenas were kept at about 25° C. Percent mortality was recorded after 5 days.

[13] = 2500 ppm, egg and larval mortality on sprayed insect diet, 5 days

CC(=O)NCc1ccc(C2=NOC(c3cc(Cl)c(F)c(Cl)c3)(C(F)(F)F)C2)c2c1CCC2 (stereo not drawn) [Compound 1-4, N-[[7-[5-(3,5-Dichloro-4-fluoro-phenyl)-5-(trifluoromethyl)-4H-isoxazol-3-yl]indan-4-yl]methyl]acetamide]
≥ 75%: mortality at 300 ppm ([1]; in Brassica oleracea, 72 h) | mortality at 2500 ppm [2] | mortality at 2500 ppm [3] | mortality at 2500 ppm [4] | mortality at 2500 ppm [5] | mortality at 2500 ppm [6] | mortality at 300 ppm [7] | mortality at 300 ppm [8] | mortality at 300 ppm [9] | mortality at 10 ppm [10] | mortality at 300 ppm [11] | mortality at 100 ppm [12]

O=C(NCC(F)(F)F)N/N=C/c1ccc(C2=NOC(c3cc(Cl)c(F)c(Cl)c3)(C(F)(F)F)C2)c2c1CCC2 (stereo not drawn) [Compound 2-3, 1-[(E)-[7-[5-(3,5-Dichloro-4-fluoro-phenyl)-5-(trifluoromethyl)-4H-isoxazol-3-yl]indan-4-yl]methyleneamino]-3-(2,2,2-trifluoroethyl)urea]
≥ 75%: mortality at 300 ppm ([1]; in Brassica oleracea, 72 h) | mortality at 2500 ppm [2] | mortality at 2500 ppm [3] | mortality at 2500 ppm [4] | mortality at 2500 ppm [5] | mortality at 2500 ppm [6] | mortality at 300 ppm [7] | mortality at 300 ppm [9]

O=C(NCC(F)(F)F)N/N=C/c1ccc(C2=NCC(c3cc(Cl)cc(Cl)c3)(C(F)(F)F)C2)c2c1CCC2 (stereo not drawn) [Compound 3-1, 1-[(E)-[7-[3-(3,5-Dichlorophenyl)-3-(trifluoromethyl)-2,4-dihydropyrrol-5-yl]indan-4-yl]methyleneamino]-3-(2,2,2-trifluoroethyl)urea]
≥ 75%: mortality at 300 ppm ([1]; 300 ppm, cabbage leaves dipped, 3rd instar larvae, 72 hours after treatment) | mortality at 2500 ppm ([2]; 2500 ppm, adult aphids on treated artificial diet, 3 days) | mortality at 2500 ppm ([3]; 2500 ppm, adult aphids on sprayed broad bean leaf disks, 5 days) | mortality at 2500 ppm [4, 13] | mortality at 2500 ppm [5, 13] | mortality at 2500 ppm [6, 13] | mortality at 10 ppm ([10]; 10 ppm, larvae on sprayed lima bean plants, 4 days after treatment)

Fc1c(Cl)cc(C2(C(F)(F)F)CC(c3ccc(-n4cncn4)c4c3CCC4)=NO2)cc1Cl (stereo not drawn) [Compound 4-1, 5-(3,5-Dichloro-4-fluoro-phenyl)-3-[7-(1,2,4-triazol-1-yl)indan-4-yl]-5-(trifluoromethyl)-4H-isoxazole]
≥ 75%: mortality at 300 ppm ([1]; in Brassica oleracea, 72 h) | mortality at 300 ppm [7] | mortality at 300 ppm [8]
